Results published in the kinase profiling compilation of Christmann-Franck et al. (2016).
Where “and” joins values, the source holds several entries; their conditions need not be identical. Identical values can stand only once.

Assays:
Test in all cases: radiometric filter-binding kinase assay, Kinase HotSpot
Conditions in all cases: compound 0.5 µM; ATP 10 µM
ADRBK2 (human) = ADRBK2 (human) (UniProt P35626)
AKT3 (human) = AKT3 (human) (UniProt Q9Y243)
ALK (human) = ALK (human) (UniProt Q9UM73)
CAMK1D (human) = CAMK1D (human) (UniProt Q8IU85)
CDC42BPB (human) = CDC42BPB (human) (UniProt Q9Y5S2)
CDK5 CDK5R1 p35 (human) = CDK5 CDK5R1 p35 (human) (UniProt Q00535+Q15078)
CDK9 CCNT1 (human) = CDK9 CCNT1 (human) (UniProt P50750+O60563)
CHUK (human) = CHUK (human) (UniProt O15111)
CLK3 (human) = CLK3 (human) (UniProt P49761)
CSNK1E (human) = CSNK1E (human) (UniProt P49674)
CSNK2A2 (human) = CSNK2A2 (human) (UniProt P19784)
EPHA2 (human) = EPHA2 (human) (UniProt P29317)
EPHA5 (human) = EPHA5 (human) (UniProt P54756)
ERBB4 (human) = ERBB4 (human) (UniProt Q15303)
FGFR4 (human) = FGFR4 (human) (UniProt P22455)
GRK4 (human) = GRK4 (human) (UniProt P32298)
HIPK3 (human) = HIPK3 (human) (UniProt Q9H422)
IKBKB (human) = IKBKB (human) (UniProt O14920)
MAP3K11 (human) = MAP3K11 (human) (UniProt Q16584)
MAPK1 (human) = MAPK1 (human) (UniProt P28482)
MAPK12 (human) = MAPK12 (human) (UniProt P53778)
MAPK13 (human) = MAPK13 (human) (UniProt O15264)
MAPK3 (human) = MAPK3 (human) (UniProt P27361)
MARK4 (human) = MARK4 (human) (UniProt Q96L34)
NLK (human) = NLK (human) (UniProt Q9UBE8)
NTRK1 (human) = NTRK1 (human) (UniProt P04629)
NTRK2 (human) = NTRK2 (human) (UniProt Q16620)
NTRK3 (human) = NTRK3 (human) (UniProt Q16288)
PAK3 (human) = PAK3 (human) (UniProt O75914)
PKN2 (human) = PKN2 (human) (UniProt Q16513)
PRKACA (human) = PRKACA (human) (UniProt P17612)
PRKCE (human) = PRKCE (human) (UniProt Q02156)
PRKCG (human) = PRKCG (human) (UniProt P05129)
PRKG1 (human) = PRKG1 (human) (UniProt Q13976)
PRKG2 (human) = PRKG2 (human) (UniProt Q13237)
RAF1 (human) = RAF1 (human) (UniProt P04049)
ROCK2 (human) = ROCK2 (human) (UniProt O75116)
STK11 (human) = STK11 (human) (UniProt Q15831)
TGFBR2 (human) = TGFBR2 (human) (UniProt P37173)
TSSK1B (human) = TSSK1B (human) (UniProt Q9BXA7)
ULK1 (human) = ULK1 (human) (UniProt O75385)
WNK3 (human) = WNK3 (human) (UniProt Q9BYP7)

PRKG1 (human), sequence (Q13976 whole entry, looked up): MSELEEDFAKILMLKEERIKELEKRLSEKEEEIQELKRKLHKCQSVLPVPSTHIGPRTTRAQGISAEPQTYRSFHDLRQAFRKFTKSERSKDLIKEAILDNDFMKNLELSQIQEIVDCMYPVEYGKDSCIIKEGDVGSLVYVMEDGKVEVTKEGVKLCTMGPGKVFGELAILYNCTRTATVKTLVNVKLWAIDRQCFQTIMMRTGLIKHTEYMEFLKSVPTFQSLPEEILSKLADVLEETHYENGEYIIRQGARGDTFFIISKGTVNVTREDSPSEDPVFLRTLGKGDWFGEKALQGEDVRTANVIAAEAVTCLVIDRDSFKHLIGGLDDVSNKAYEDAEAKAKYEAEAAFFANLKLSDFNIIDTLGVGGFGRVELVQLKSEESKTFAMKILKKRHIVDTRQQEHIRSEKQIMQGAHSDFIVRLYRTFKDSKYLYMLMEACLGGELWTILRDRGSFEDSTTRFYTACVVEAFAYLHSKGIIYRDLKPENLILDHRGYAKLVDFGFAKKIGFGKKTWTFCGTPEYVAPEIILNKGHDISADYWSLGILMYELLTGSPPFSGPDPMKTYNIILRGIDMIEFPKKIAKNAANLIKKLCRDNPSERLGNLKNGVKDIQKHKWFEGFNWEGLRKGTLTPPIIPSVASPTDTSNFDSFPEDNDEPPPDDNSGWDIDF
MAPK12 (human), sequence (P53778 whole entry, looked up): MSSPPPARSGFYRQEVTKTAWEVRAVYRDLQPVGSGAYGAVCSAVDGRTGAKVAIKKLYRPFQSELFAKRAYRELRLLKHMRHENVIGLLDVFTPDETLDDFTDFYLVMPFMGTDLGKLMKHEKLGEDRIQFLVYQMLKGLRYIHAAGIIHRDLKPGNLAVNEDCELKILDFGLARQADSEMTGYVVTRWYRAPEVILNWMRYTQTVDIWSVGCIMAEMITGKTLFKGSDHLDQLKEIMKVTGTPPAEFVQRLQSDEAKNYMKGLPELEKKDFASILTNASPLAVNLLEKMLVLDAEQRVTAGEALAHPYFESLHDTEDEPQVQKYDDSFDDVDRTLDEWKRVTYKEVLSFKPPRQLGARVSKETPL
RAF1 (human), sequence (P04049 whole entry, looked up): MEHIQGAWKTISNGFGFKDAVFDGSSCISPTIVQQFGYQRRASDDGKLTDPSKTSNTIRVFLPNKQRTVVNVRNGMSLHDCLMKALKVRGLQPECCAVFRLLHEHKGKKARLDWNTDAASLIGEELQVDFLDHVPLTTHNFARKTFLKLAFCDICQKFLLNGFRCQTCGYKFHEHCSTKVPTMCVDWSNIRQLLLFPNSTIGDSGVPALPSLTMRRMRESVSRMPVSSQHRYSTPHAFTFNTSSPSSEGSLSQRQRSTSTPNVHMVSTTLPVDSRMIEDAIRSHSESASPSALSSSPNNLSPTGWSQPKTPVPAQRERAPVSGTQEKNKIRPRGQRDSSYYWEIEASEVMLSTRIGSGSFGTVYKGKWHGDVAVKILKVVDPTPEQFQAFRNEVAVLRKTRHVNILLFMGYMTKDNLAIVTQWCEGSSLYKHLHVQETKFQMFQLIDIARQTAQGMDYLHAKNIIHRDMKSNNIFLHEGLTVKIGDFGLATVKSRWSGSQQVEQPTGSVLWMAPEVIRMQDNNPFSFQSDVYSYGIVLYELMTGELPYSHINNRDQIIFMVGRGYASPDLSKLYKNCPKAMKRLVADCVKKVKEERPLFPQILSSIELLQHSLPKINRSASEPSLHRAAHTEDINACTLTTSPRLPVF
FGFR4 (human), sequence (P22455 whole entry, looked up): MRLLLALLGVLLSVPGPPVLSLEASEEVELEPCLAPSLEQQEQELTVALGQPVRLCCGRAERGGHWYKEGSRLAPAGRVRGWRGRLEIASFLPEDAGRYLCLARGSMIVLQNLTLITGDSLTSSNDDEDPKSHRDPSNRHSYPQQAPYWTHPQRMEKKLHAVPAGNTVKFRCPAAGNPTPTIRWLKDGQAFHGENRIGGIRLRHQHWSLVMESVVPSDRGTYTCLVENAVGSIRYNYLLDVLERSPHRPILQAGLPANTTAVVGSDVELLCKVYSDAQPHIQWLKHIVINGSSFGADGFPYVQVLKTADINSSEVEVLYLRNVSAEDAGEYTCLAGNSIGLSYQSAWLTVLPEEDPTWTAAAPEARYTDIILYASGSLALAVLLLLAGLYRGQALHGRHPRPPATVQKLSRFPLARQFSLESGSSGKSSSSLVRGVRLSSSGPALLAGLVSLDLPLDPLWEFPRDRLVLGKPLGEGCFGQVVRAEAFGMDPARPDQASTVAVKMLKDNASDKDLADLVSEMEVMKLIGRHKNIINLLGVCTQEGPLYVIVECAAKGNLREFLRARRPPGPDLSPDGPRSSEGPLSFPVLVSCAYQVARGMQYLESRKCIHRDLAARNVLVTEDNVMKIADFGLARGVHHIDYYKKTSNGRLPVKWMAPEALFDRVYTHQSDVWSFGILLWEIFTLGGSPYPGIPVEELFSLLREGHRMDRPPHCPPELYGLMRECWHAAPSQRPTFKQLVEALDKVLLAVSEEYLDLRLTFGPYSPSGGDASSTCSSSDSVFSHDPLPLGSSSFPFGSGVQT
CHUK (human), sequence (O15111 whole entry, looked up): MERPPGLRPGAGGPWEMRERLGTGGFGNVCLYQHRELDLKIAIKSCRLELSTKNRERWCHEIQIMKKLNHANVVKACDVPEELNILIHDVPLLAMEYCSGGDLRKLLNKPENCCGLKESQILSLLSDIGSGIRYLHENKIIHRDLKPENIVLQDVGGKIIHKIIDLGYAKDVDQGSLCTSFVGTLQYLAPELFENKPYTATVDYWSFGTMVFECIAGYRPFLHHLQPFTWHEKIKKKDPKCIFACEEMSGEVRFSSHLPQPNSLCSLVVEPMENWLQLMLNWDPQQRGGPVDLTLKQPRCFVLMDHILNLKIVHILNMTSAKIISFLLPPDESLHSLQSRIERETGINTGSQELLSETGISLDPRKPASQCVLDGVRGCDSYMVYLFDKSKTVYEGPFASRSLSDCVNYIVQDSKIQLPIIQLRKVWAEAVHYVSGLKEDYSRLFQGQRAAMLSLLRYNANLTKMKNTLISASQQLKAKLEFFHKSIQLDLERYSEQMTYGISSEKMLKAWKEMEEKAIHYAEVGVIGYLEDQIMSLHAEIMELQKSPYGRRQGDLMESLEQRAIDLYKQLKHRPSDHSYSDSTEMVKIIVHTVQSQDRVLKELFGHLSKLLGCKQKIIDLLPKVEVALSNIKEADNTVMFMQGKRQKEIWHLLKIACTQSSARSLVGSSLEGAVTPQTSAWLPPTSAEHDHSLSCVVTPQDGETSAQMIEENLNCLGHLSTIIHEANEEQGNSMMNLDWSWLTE
MAPK3 (human), sequence (P27361 whole entry, looked up): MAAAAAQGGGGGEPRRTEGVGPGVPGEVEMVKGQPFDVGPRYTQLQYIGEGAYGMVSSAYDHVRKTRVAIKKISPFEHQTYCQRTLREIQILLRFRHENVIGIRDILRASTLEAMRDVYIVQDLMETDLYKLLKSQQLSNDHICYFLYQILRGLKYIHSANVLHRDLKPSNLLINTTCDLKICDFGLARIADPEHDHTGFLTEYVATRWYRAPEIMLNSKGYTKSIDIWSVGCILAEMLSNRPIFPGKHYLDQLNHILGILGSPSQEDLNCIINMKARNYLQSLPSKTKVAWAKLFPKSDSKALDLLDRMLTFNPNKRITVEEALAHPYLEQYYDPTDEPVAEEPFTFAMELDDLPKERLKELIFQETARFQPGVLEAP
CLK3 (human), sequence (P49761 whole entry, looked up): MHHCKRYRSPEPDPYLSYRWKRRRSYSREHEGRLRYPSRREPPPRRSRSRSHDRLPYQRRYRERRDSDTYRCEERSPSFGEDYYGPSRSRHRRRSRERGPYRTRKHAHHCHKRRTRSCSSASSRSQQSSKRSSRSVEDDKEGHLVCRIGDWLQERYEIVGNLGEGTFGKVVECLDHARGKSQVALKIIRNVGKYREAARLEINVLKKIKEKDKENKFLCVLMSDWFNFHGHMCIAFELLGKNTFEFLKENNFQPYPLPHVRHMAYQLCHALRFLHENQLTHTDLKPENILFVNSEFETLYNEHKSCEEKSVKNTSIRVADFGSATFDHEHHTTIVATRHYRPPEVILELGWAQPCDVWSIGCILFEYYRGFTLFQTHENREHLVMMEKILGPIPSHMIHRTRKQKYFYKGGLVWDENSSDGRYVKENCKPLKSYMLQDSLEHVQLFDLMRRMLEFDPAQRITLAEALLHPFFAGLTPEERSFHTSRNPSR
IKBKB (human), sequence (O14920 whole entry, looked up): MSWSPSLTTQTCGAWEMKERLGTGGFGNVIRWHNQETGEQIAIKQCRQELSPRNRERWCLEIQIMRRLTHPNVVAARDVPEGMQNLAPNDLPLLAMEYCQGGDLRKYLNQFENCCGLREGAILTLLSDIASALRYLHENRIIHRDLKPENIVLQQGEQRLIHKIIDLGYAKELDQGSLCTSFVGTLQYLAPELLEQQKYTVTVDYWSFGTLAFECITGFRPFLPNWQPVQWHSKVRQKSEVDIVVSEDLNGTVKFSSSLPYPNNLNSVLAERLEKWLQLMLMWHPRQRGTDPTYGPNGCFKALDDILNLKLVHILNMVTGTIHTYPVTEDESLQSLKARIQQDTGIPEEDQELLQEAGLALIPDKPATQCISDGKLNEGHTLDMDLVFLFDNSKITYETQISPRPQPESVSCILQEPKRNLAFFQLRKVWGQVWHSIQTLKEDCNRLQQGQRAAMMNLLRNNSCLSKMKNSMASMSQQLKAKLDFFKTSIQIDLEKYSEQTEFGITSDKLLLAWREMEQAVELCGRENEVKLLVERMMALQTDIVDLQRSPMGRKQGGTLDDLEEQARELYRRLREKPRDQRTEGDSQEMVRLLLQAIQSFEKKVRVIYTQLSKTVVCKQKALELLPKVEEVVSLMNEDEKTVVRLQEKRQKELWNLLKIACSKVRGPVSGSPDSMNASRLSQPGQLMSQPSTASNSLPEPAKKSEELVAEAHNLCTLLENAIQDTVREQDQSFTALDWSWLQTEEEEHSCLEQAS

Work on COc1ccc2c(c[n+](C)c3c4cc5c(cc4ccc23)OCO5)c1OC yielded a residual activity (ADRBK2 (human)) of 88.4%, a residual activity (AKT3 (human)) of 103% and a residual activity (ALK (human)) of 105%. For the same compound, the residual activity (CAMK1D (human)) was 105%, the residual activity (CDC42BPB (human)) was 107% and the residual activity (CDK5 CDK5R1 p35 (human)) was 95.7%. For the same compound, the residual activity (CDK9 CCNT1 (human)) was 96.4%, the residual activity (CHUK (human)) was 97.5% and the residual activity (CLK3 (human)) was 95.2%. The residual activity (CSNK1E (human)) was 90.7%, the residual activity (CSNK2A2 (human)) was 89.7% and the residual activity (EPHA2 (human)) was 97.4%. The residual activity (EPHA5 (human)) was 94.6%, the residual activity (ERBB4 (human)) was 99.9% and the residual activity (FGFR4 (human)) was 90.1%. The residual activity (GRK4 (human)) was 94.8%, the residual activity (HIPK3 (human)) was 96.6% and the residual activity (IKBKB (human)) was 103%. For the same compound, the residual activity (MAP3K11 (human)) was 95%, the residual activity (MAPK1 (human)) was 101% and the residual activity (MAPK12 (human)) was 100%. The residual activity (MAPK13 (human)) was 97.3%, the residual activity (MAPK3 (human)) was 108% and the residual activity (MARK4 (human)) was 99.3%. It also gave a residual activity (NLK (human)) of 102%, a residual activity (NTRK1 (human)) of 89.8% and a residual activity (NTRK2 (human)) of 104%. The residual activity (NTRK3 (human)) was 95.2%, the residual activity (PAK3 (human)) was 96.6% and the residual activity (PKN2 (human)) was 93.3%. For the same compound, the residual activity (PRKACA (human)) was 100%, the residual activity (PRKCE (human)) was 93.6% and the residual activity (PRKCG (human)) was 87.2%. The residual activity (PRKG1 (human)) was 97.6% and 98.8%, the residual activity (PRKG2 (human)) was 68.7% and the residual activity (RAF1 (human)) was 96.7%. For the same compound, the residual activity (ROCK2 (human)) was 92.5%, the residual activity (STK11 (human)) was 82.1% and the residual activity (TGFBR2 (human)) was 71.6%. It also gave a residual activity (TSSK1B (human)) of 97.3%, a residual activity (ULK1 (human)) of 109% and a residual activity (WNK3 (human)) of 101%.
Work on Nc1ccc2ncnc(NCCc3ccc(Oc4ccccc4)cc3)c2c1 yielded a residual activity (ADRBK2 (human)) of 97.9%, a residual activity (AKT3 (human)) of 104% and a residual activity (ALK (human)) of 108%. For the same compound, the residual activity (CAMK1D (human)) was 102%, the residual activity (CDC42BPB (human)) was 105% and the residual activity (CDK5 CDK5R1 p35 (human)) was 103%. It also gave a residual activity (CDK9 CCNT1 (human)) of 101%, a residual activity (CHUK (human)) of 101% and a residual activity (CLK3 (human)) of 117%. For the same compound, the residual activity (CSNK1E (human)) was 148%, the residual activity (CSNK2A2 (human)) was 103% and the residual activity (EPHA2 (human)) was 103%. For the same compound, the residual activity (EPHA5 (human)) was 102%, the residual activity (ERBB4 (human)) was 70.2% and the residual activity (FGFR4 (human)) was 104%. It also gave a residual activity (GRK4 (human)) of 99.6%, a residual activity (HIPK3 (human)) of 98.6% and a residual activity (IKBKB (human)) of 100%. For the same compound, the residual activity (MAP3K11 (human)) was 103%, the residual activity (MAPK1 (human)) was 90.1% and the residual activity (MAPK12 (human)) was 93.6%. For the same compound, the residual activity (MAPK13 (human)) was 100%, the residual activity (MAPK3 (human)) was 105% and the residual activity (MARK4 (human)) was 105%. For the same compound, the residual activity (NLK (human)) was 104%, the residual activity (NTRK1 (human)) was 108% and the residual activity (NTRK2 (human)) was 104%. The residual activity (NTRK3 (human)) was 98.4%, the residual activity (PAK3 (human)) was 102% and the residual activity (PKN2 (human)) was 89.7%. For the same compound, the residual activity (PRKACA (human)) was 88.6%, the residual activity (PRKCE (human)) was 109% and the residual activity (PRKCG (human)) was 95.2%. The residual activity (PRKG1 (human)) was 93.1% and 94.5%, the residual activity (PRKG2 (human)) was 105% and the residual activity (RAF1 (human)) was 98.2%. The residual activity (ROCK2 (human)) was 90.7%, the residual activity (STK11 (human)) was 97.6% and the residual activity (TGFBR2 (human)) was 110%. The residual activity (TSSK1B (human)) was 100%, the residual activity (ULK1 (human)) was 105% and the residual activity (WNK3 (human)) was 114%.
